Experimental data: patent US11571413B2, “Nicotinamide riboside treatments of domesticated meat animals” (Kansas State University Research Foundation, priority 2017, dated 2023)

Tested on: finishing barrows
Experiment: Loin chop color stability, 8-day simulated retail display (Example IV)
Type: in vivo, pig
Conditions: NR 30 mg/kg, 10 days
Description: Seven days prior to the beginning of the experiment, 10 finishing barrows (initial BW 111.9±1.6 kg) were assigned to individual pens located at the East Finisher facility of the Kansas State University Swine Teaching and Research Center (Manhattan, Kans.). Each pen was 7.4 m^2 with a slatted floor, contained a nipple waterer and an individual dry feeder that allowed ad libitum access to food and water. Barrows were randomly assigned to 1 of 2 NR treatments, 0 or 30 mg/kg daily of NR mixed in Karo® syrup and administered by oral gavage. Barrows were administered their assigned treatment for 10 days, after which they were harvested under USDA inspection. Twenty-four hours after harvest, carcass measurements were taken by trained personnel, carcasses were fabricated into the 5 major wholesale cuts, and whole-boneless loins were vacuum packaged and aged for 10 days. Loin were cut into 3 chops with chop 1 being used for day-0 metmyoglobin reducing ability (MRA) analysis, chop 2 being used for day-4 MRA and oxygen consumption rate (OCR) analyses, and chop 3 for 8-day objective/subjective color evaluation and MRA and OCR analyses. There were no Treatment×Day interactions for all objective and subjective color measurements (P>0.77). Day of display affected all measures consistent with the discoloration of meat (P<0.02), except L* (lightness; 0=black and 100=white) value which was not affected (P=0.14; Table 5).

[1] = 8-day display, treatment effect not significant (P>0.19)

`NC(=O)c1ccc[n+]([C@@H]2O[C@H](CO)[C@@H](O)[C@H]2O)c1` [Nicotinamide riboside, nicotinamide riboside] was tested, and the “Metmyoglobin reducing ability (MRA) vs control” value [1] was “greater”, the “Oxygen consumption rate (OCR) vs control” value [1] was “greater” and the “Loin chop L* (0 = black and 100 = white)” value (display day 0) was 64.4. The “Loin chop a* (−60 = green and 60 = red)” value (display day 0) was 19.7, the “Loin chop L* (0 = black and 100 = white)” value (display day 1) was 65.2 and the “Loin chop a* (−60 = green and 60 = red)” value (display day 1) was 18.8. The “Loin chop L* (0 = black and 100 = white)” value (display day 2) was 63.7, the “Loin chop a* (−60 = green and 60 = red)” value (display day 2) was 18.6 and the “Loin chop L* (0 = black and 100 = white)” value (display day 3) was 63.4. The “Loin chop a* (−60 = green and 60 = red)” value (display day 3) was 17.8, the “Loin chop L* (0 = black and 100 = white)” value (display day 4) was 63.1 and the “Loin chop a* (−60 = green and 60 = red)” value (display day 4) was 17.3. The “Loin chop L* (0 = black and 100 = white)” value (display day 5) was 62.9, the “Loin chop a* (−60 = green and 60 = red)” value (display day 5) was 16.3 and the “Loin chop L* (0 = black and 100 = white)” value (display day 6) was 62.7. The “Loin chop a* (−60 = green and 60 = red)” value (display day 6) was 15.6, the “Loin chop L* (0 = black and 100 = white)” value (display day 7) was 62.8 and the “Loin chop a* (−60 = green and 60 = red)” value (display day 7) was 15.1. The “Loin chop L* (0 = black and 100 = white)” value (display day 8) was 62.8, the “Loin chop a* (−60 = green and 60 = red)” value (display day 8) was 14.7 and the “Trained panelists loin chop discoloration vs control” value (entire 8-day display period) was “less discoloration”. The “Loin chop surface metmyoglobin vs control” value (over the 8-day display period) was “less surface metmyoglobin formation” and the “Loin chop surface oxymyoglobin vs control” value (over the 8-day display period) was “greater surface oxymyoglobin”.
